For one data set, the system named is OCM-1A cells. The data set can be described thus: UM cell viability, water-soluble tetrazolium salt assay. The conditions noted are these: even at high concentration (10 μM).
The target in a further data set is T1, wild type Gα13 with Gβγ2 (Homo sapiens, UniProt Q14344).
T1 construct: expressed in transfected cells; host or cells: HEK-293
The data set can be described thus: Split luciferase complementation, Gα interaction with Gβγ2. The conditions noted are these: FIG. 1A. Format: cell-based. The source says:
(§1) (FIG. 1A-1C) depicts the effect of FR on the activity state of Gα subunits as determined by interaction with Gβγ or RGS domains in split luciferase complementation assays. FIG. 1A Effect of FR on interaction of Gβγ2 with the indicated wild type (WT) or mutant constitutively active (Q/L) forms of Gα (q) or Gα13 (13). * p<0.01; ** p<0.05. FIG. 1B Potency of FR as a driver of interaction of Gβγ2 with wild type or mutant constitutively active Gαq. FIG. 1C Potency of FR as inhibitor of interaction of RGS2 with mutant constitutively active (Q/L) Gαq, or interaction of the RGS domain of LARG (LARG-RGS) with mutant constitutively active Gα13. FIG. 1D Potency of FR as inhibitor of signal transduction by constitutively active Gαq or Gα13 detected with an SRE(L) promoter-driven transcriptional reporter. Constitutively active Gαq (Q/L), constitutively active Gαq bearing the indicated FR binding site mutations, and constitutively Gα13 (Q/L) were studied.
(§2) To detect protein-protein interactions, a split luciferase complementation assays was used (23), as employed to study activation state-dependent interaction between Gα subunits and cognate binding partners (24).
(§3) Split luciferase assays were performed as described (24). The N-terminal portion of click beetle green luciferase (CBGN) was inserted into the αB-αC loop within the helical domain of wild type (WT) and constitutively active (Q/L) mutant forms of Gα and Gα13. Insertion of foreign proteins at this site preserves Gαfunction (40). The C-terminal region of click beetle green luciferase (CBGC) was fused to the N-termini of G131 (which was co-expressed with untagged Gγ2), RGS2, and the RGS domain of LARG, which interacts with Gal 3 only in the active GTP-bound state (41). HEK-293 cells transiently transfected with various combinations of tagged proteins were treated 18 h with vehicle(DMSO) or FR and luciferase assays were performed to measure reconstituted luciferase activity.

Data set [1] deals with T2, wild type Gαq interacting with Gβγ2 (Homo sapiens, UniProt P50148).
T2 construct: expressed in transfected cells; host or cells: HEK-293
T2 sequence (P50148 whole entry): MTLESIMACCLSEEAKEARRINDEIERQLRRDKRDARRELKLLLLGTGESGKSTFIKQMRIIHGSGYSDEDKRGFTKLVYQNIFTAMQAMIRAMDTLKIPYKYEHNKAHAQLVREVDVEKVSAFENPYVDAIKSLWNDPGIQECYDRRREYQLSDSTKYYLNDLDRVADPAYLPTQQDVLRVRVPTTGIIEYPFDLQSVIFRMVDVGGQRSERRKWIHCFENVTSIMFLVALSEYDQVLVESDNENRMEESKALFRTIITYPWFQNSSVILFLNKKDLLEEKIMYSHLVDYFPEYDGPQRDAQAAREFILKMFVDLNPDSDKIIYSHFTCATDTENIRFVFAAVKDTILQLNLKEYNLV
T2 sequence (P59768 2-68, further chain): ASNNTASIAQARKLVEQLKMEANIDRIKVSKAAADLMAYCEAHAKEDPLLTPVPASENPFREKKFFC
T2 sequence (P62873 whole entry, further chain): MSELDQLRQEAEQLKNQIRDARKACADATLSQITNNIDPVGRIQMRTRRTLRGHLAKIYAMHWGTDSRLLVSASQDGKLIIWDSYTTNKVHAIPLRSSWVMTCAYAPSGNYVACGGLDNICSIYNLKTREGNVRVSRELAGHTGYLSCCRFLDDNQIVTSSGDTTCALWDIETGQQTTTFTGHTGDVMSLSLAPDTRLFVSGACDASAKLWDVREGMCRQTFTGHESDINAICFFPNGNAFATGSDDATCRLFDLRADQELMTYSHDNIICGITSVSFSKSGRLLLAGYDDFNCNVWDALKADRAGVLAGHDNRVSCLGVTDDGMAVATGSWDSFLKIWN
The description is as above. Format: cell-based. The conditions noted are these: HEK-293 cells, 18 h, FIG. 1B, read-out: EC50, increase of split luciferase complementation.
Source text: as §1, §2, §3

The target of data set [2] is T3, constitutively active Gα13 with Gβγ2 (Homo sapiens, UniProt Q14344, Q226L).
T3 construct: expressed in transfected cells; host or cells: HEK-293
T3 sequence (Q14344 1-377 Q226L): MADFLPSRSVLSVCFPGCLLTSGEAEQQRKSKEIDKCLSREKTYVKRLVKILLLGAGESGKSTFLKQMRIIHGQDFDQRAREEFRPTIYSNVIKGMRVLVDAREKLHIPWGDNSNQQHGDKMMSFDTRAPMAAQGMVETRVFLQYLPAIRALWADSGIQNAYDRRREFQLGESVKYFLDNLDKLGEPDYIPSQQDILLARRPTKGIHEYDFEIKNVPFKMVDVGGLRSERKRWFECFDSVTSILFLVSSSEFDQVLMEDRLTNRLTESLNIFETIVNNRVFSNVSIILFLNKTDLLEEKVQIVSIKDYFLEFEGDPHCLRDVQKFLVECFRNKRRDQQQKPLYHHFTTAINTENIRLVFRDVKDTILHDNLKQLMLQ
The data set is described as above. Type of data set: cell-based. The conditions noted are these: FIG. 1A.
Source text: as §1, §2, §3

Data set [3] has as its system constitutively active Gα13. The data set can be described thus: SRE(L) promoter-driven transcriptional reporter. Format: cell-based. The conditions noted are these: driven by constitutively active Gα13.
Source text: as §1
(§4) Assays of transcriptional reporters driven by YAP or Gα subunits were performed as described (42, 43). YAP- or Ga-driven firefly luciferase activity was normalized to Renilla luciferase expressed from a constitutive promoter.

Data set [4] concerns constitutively active Gαq bearing FR binding site mutations. The data set can be described thus: SRE(L) promoter-driven transcriptional reporter. Format: cell-based. The conditions noted are these: read-out: IC50, inhibition of transcriptional reporter induction.
Source text: as §1, §4

Data set [5] deals with constitutively active Gαq. The data set can be described thus: SRE(L) promoter-driven transcriptional reporter. Type of data set: cell-based. The conditions noted are these: driven by constitutively active Gαq; FIG. 1D; read-out: IC50, inhibition of transcriptional reporter induction.
Source text: as §1, §4

The test system of another data set is 92.1 UM cells. The data set can be described thus: UM cell viability, water-soluble tetrazolium salt assay. The conditions noted are these: Homo sapiens, read-out: EC50, inhibition of proliferation (viability).
Data set [6] is described as follows: Retina structure (preliminary data). The source says:
In this example we will determine whether FR has potential to provide vision sparing therapy for primary (ocular) UM tumors. […] Based on our preliminary studies of UM cells in culture, intravitreal injection might be therapeutically beneficial by inhibiting tumor growth, promoting apoptosis, and/or pushing tumor re-differentiation toward melanocytic phenotypes less likely to metastasize. […] Our second priority is to determine whether FR administered systemically could provide therapeutic benefit for metastatic UM tumors.

pEC50, pIC50: −log10 of the molar value. Starred links: 1 amine or outer side, 2 acyl side, 3 side chain; linkers in the order of their positions; H or OH if unused. Positions of bridges follow the written chain, without caps; N, C: chain ends. Non-standard residues stand in square brackets, D forms with d. Residues, ends and D or L forms follow the SMILES beside them. *: point of attachment. Leu(3R-OH,Nα-propionyl) = CCC(=O)N[C@H](C(=O)*)[C@H](O)C(C)C; X1 = CC(C)[C@@H](O[*:3])[C@H](N[*:1])C(=O)[*:2]; X2 = CC(C)[C@H](O[*:3])[C@@H](N[*:1])C(=O)[*:2]; NMeaThr = CN[C@H](C(=O)O)[C@H](C)O; dPhLac = O=C(O)[C@H](O)Cc1ccccc1; NMeA = CN[C@@H](C)C(=O)O; NMeDha = C=C(NC)C(=O)O

T1 sequence (P59768 2-68): as the sequence (P59768 2-68, further chain) above
T1 sequence (Q14344 whole entry): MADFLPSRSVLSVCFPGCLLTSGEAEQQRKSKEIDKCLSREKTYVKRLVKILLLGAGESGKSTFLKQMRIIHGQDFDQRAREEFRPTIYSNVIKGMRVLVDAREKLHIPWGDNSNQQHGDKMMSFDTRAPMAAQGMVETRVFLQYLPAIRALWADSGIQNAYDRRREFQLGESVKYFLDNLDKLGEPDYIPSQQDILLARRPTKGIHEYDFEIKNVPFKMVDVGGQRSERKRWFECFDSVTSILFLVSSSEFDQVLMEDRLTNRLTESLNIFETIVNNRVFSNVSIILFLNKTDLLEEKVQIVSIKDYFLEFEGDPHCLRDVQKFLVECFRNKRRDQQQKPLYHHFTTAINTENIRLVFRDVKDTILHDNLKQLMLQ
T1 sequence (P62873 whole entry, further chain): as the sequence (P62873 whole entry, further chain) above
Description for 92.1 UM cells: (§5) Cells were cultured at 37.0 in 5% CO2. […] Cell lines were grown in RPMI 1640 medium (Life Technologies, Carlsbad, Calif.) supplemented with 10% FBS and antibiotics. Cell viability was measured using a water-soluble tetrazolium salt, WTS-8 (Bimake, Houston, Tex.), following the manufacturer's protocol. Flow cytometry for analysis of cell proliferation and apoptosis was performed at the Siteman Cancer Center Flow Cytometry Core on a FACScan analyzer (BD Biosciences, San Diego Calif., USA) using a standard propidium iodide staining protocol as described previously (44).
Description for OCM-1A cells: as §5

The pIC50 is −log10 of the IC50, conventionally taken in molar units. Consider `C=C1C(=O)N[C@@H](C)C(=O)N(C)[C@@H](C)C(=O)N[C@H]([C@@H](OC(=O)[C@@H](NC(=O)CC)[C@H](O)C(C)C)C(C)C)C(=O)N(C)[C@@H]([C@H](C)OC)C(=O)O[C@H](C(C)C)[C@H](NC(C)=O)C(=O)O[C@H](Cc2ccccc2)C(=O)N1C` [FR, [(1S)-1-[(3S,6R,9S,12S,18R,21S,22R)-21-acetamido-18-benzyl-3-[(1S)-1-methoxyethyl]-4,9,10,12,16-pentamethyl-15-methylidene-2,5,8,11,14,17,20-heptaoxo-22-propan-2-yl-1,19-dioxa-4,7,10,13,16-pentazacyclodocos-6-yl]-2-methylpropyl] (2S,3R)-3-hydroxy-4-methyl-2-(propanoylamino)pentanoate] (Ac-[X1][dPhLac][NMeDha]A[NMeA][X2](Leu(3R-OH,Nα-propionyl))[NMeaThr](Me); ester 1-C), for which the effect on proliferation entry in the data set with OCM-1A cells is on record as “no effect”. The “effect on interaction with Gβγ2” value (on wild type Gα13 with Gβγ2; in [2]) was “lack of effect” throughout. Also, the pEC50 is 8.52 in data set [1] and 8.70 with 92.1 UM cells. The “effect on expression of the transcriptional reporter” value in data set [3] was “no effect”. The pIC50 was 7.15 to 7.52 in data set [4] and 9.00 in [5]. Besides, in data set [6], the retina structure entry is listed as “preserves retina structure”.
